Read-outs that look alike come from different tables or passages of the source.
Columns and labels:
[1] = system: NCIH460; test: Anti-cancer screen (MTT), NCIH460; type: cell-based; details: Homo sapiens, NCI-H460, 48 hours with compound, tested at 0.01-100 µM
Summary of the method: (§1)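 Growth inhibition is measured by MTT reduction after 48 h treatment of cells grown in DMEM with 10% fetal bovine serum. Percent growth uses T0 viability, measured just before dosing, so that net cell kill yields negative values and an LC50.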

[2] = system: HCT116; test: Anti-cancer screen (MTT), HCT116; type: cell-based; details: Homo sapiens, HCT-116, 48 hours with compound, tested at 0.01-100 µM
Summary of the method: as §1

[3] = system: MDAMB-231/U 251; test: Anti-cancer screen (MTT), MDAMB-231/U 251; type: cell-based; details: for CC50: read-out: MDAMB-231/U 251 LC50
Summary of the method: as §1

[4] = system: NCIH460, HCT116, MDAMB-231/U 251; test: Anti-cancer screen, mean GI50 over the cell lines; type: cell-based; details: in µM
Summary of the method: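 HCT116, NCIH460 and U251 cells (5000/well) were seeded for 24 h, then exposed in triplicate to 0.01, 0.1, 1, 10 and 100 µM final compound for 48 h. Viability was read by MTT (3 h, absorbance 570 nm), and percent growth was calculated against untreated controls and a T0 plate read at compound addition.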

[5] = system: HDAC; test: HDAC inhibition; type: biochemical; details: for HDAC Inhibition 1 μM: compound at 1 μM; for HDAC Inhibition 10 μM: compound at 10 μM
[6] = 48 hours with compound, MTT, tested at 0.01-100 µM

Structure (SMILES)	GI50 [1]	IC (TGI) [1]	LC50 [1]	GI50 [2]	IC (TGI) [2]	CC50 ([2]; read-out: HCT116 LC50)	GI50 [3, 6]	IC (TGI) [3, 6]	CC50 [3, 6]	Mean GI50 [4]	HDAC Inhibition 1 μM [5]	HDAC Inhibition 10 μM [5]	LC50 (concentration giving 50% net cell kill relative to T0) [2]	CC50 ([3]; 48 h)	IC50 [5]
CC(=O)N(O)C(=O)Cc1csc(NC(=O)OCc2ccc(Br)s2)n1 [Example 78, (5-bromo-2-thienyl)methyl(4-{2-[acetyl(hydroxy)amino]-2-oxoethyl}-1,3-thiazol-2-yl)carbamate]	6.5 µM	45 µM	> 100 µM	30 µM	80 µM	> 100 µM	20 µM	75 µM	> 100 µM	18.8	3.61	35.88	–	–	–
CC(=O)N(O)C(=O)Cc1csc(NC(=O)OCc2cccs2)n1 [Example 80, 2-Thienylmethyl(4-{2-[acetyl(hydroxy)amino]-2-oxoethyl}-1,3-thiazol-2-yl)carbamate]	53 µM	> 100 µM	> 100 µM	> 100 µM	> 100 µM	–	35 µM	96 µM	–	>100	–	5.28	> 100 µM	> 100 µM	–
CC(=O)ONC(=O)c1ccc(CNC(=O)OCc2cccs2)cc1 [Example 82, 2-Thienylmethyl(4-{[(acetyloxy)amino]carbonyl}benzyl)carbamate]	24 µM	62 µM	> 100 µM	7 µM	41 µM	–	28 µM	52 µM	–	19.66	48.96	86.12	78 µM	> 100 µM	–
CC(=O)ONC(=O)c1ccc(CNC(=O)OCc2nccs2)cc1 [Example 83, 1,3-thiazol-2-ylmethyl(4-{[(acetyloxy)amino]carbonyl}benzyl)carbamate]	30 µM	60 µM	90 µM	10 µM	56 µM	–	9 µM	66 µM	–	16.33	22.38	63.89	84 µM	> 100 µM	–
COC(=O)ONC(=O)c1ccc(CNC(=O)OCc2cccs2)cc1 [Example 84, 2-Thienylmethyl[4-({[(methoxycarbonyl)oxy]amino}carbonyl)benzyl]carbamate]	81 µM	> 100 µM	> 100 µM	> 100 µM	> 100 µM	–	54 µM	> 100 µM	–	>100	20.20	61.74	> 100 µM	> 100 µM	–
O=C(CCCCCNC(=O)Cc1csc(NC(=O)OCc2cccnc2)n1)NO [Example 87, pyridin-3-ylmethyl[4-(2-{[6-(hydroxyamino)-6-oxohexyl]amino}-2-oxoethyl)-1,3-thiazol-2-yl]carbamate]	> 100 µM	> 100 µM	> 100 µM	> 100 µM	> 100 µM	–	10 µM	> 100 µM	–	>100	42.24	87.80	> 100 µM	> 100 µM	–
O=C(CCCCCNC(=O)Cc1csc(NC(=O)OCc2nc3ccccc3s2)n1)NO [Example 90, 1,3-Benzothiazol-2-ylmethyl[4-(2-{[6-(hydroxyamino)-6-oxohexyl]amino}-2-oxoethyl)-1,3-thiazol-2-yl]carbamate]	38 µM	98 µM	> 100 µM	38 µM	65 µM	–	0.06 µM	48 µM	–	25.35	61.63	98.85	> 100 µM	98 µM	–
O=C(CCCNC(=O)Cc1csc(NC(=O)OCc2nc3ccccc3s2)n1)NO [Example 91, 1,3-Benzothiazol-2-ylmethyl[4-(2-{[4-(hydroxyamino)-4-oxobutyl]amino}-2-oxoethyl)-1,3-thiazol-2-yl]carbamate]	35 µM	> 100 µM	> 100 µM	51 µM	> 100 µM	–	21 µM	89 µM	–	35.7	10.73	25.05	> 100 µM	> 100 µM	–
O=C(CCCCNC(=O)Cc1csc(NC(=O)OCc2nc3ccccc3s2)n1)NO [Example 93, 1,3-Benzothiazol-2-ylmethyl[4-(2-{[5-(hydroxyamino)-5-oxopentyl]amino}-2-oxoethyl)-1,3-thiazol-2-yl]carbamate]	50 µM	> 100 µM	> 100 µM	40 µM	88 µM	–	7 µM	55 µM	–	32.3	26.26	76.23	> 100 µM	> 100 µM	–
O=C(CCCNC(=O)Cc1csc(NC(=O)OCc2nccs2)n1)NO [Example 95, 1,3-Thiazol-2-ylmethyl[4-(2-{[4-(hydroxyamino)-4-oxobutyl]amino}-2-oxoethyl)-1,3-thiazol-2-yl]carbamate]	93 µM	> 100 µM	> 100 µM	> 100 µM	> 100 µM	–	> 100 µM	> 100 µM	–	>100	−2.89	4.19	> 100 µM	> 100 µM	–
O=C(CCCCCNC(=O)Cc1csc(NC(=O)OCc2nccs2)n1)NO [Example 96, 1,3-Thiazol-2-ylmethyl[4-(2-{[6-(hydroxyamino)-6-oxohexyl]amino}-2-oxoethyl)-1,3-thiazol-2-yl]carbamate]	> 100 µM	> 100 µM	> 100 µM	> 100 µM	> 100 µM	–	70 µM	> 100 µM	–	>100	52.41	86.63	> 100 µM	> 100 µM	–
O=C(CCCNC(=O)Cc1csc(NC(=O)OCc2ccncc2)n1)NO [Example 97, Pyridin-4-ylmethyl[4-(2-{[4-(hydroxyamino)-4-oxobutyl]amino}-2-oxoethyl)-1,3-thiazol-2-yl]carbamate]	100 µM	> 100 µM	> 100 µM	> 100 µM	> 100 µM	–	> 100 µM	> 100 µM	–	>100	5.02	5.80	> 100 µM	> 100 µM	–
O=C(Cc1csc(NC(=O)c2ccc(CNC(=O)OCc3cccs3)cc2)n1)NO [Example 101, 2-Thienylmethyl{4-[({4-[2-(hydroxyamino)-2-oxoethyl]-1,3-thiazol-2-yl}amino)carbonyl]benzyl}carbamate]	> 100 µM	> 100 µM	> 100 µM	14 µM	> 100 µM	–	> 100 µM	> 100 µM	–	>100	8.52	45.50	> 100 µM	> 100 µM	–
O=C(CCCCCNC(=O)c1ccc(CNC(=O)OCc2cccs2)cc1)NO [Example 102, 2-Thienylmethyl[4-({[6-(hydroxyamino)-6-oxohexyl]amino}carbonyl)benzyl]carbamate]	5 µM	9.5 µM	100 µM	4.8 µM	10 µM	–	4.8 µM	9.5 µM	–	4.9	79.08	85.52	> 100 µM	60 µM	0.25 µM
O=C(NCc1ccc(C(=O)Nc2ccccc2NC(=O)c2ccc3c(c2)OCO3)cc1)OCc1cccs1 [Example 106, 2-thienylmethyl(4-[({(2-{1,3-benzodioxol-5-ylcarbonyl}amino)-phenyl}amino)carbonyl]benzyl)carbamate]	0.44 µM	107 µM	> 100 µM	> 100 µM	> 100 µM	–	5.2 µM	> 100 µM	–	2.8	2.1	7.2	> 100 µM	> 100 µM	–

Source: US20100152188A1, “Novel Heterocyclic Compounds” (priority 2005, published 2010)
